The text below walks through data of publication PMC9737184, “In Vitro Study of Cytotoxic Mechanisms of Alkylphospholipids and Alkyltriazoles in Acute Lymphoblastic Leukemia Models” (Molecules, 2022).

Series [1] concerns CCRF-CEM (acute lymphoblastic leukemia). The series is described as follows: Annexin V-FITC/PI cytotoxicity, concentration-response. The series is classed as cell-based. To be noted: Homo sapiens, CCRF-CEM cells, 24 h. The protocol:
(§1) Figure 2 Effects of the alkyltriazole compounds C9 and C21 on the viability of different myeloblastic and lymphoblastic leukemia lineages. Lineages cells at 2 × 10^5 cells/mL were used. Cells were exposed to concentrations ranging from 0 to 150 µM for 24 h, and cell viability was assessed by annexin V-FITC/PI staining and flow cytometric analysis. (A) Chemical structure of C9, with a hydroxyl group and an iodine atom as substituents.
(§2) Human leukemia cell lines (Kasumi-1, K-562, ARH-77, Jurkat and CCRF-CEM, see Table S2) were purchased from American Type Culture Collection-ATCC (Manassas, VA, USA). The cells were maintained in RPMI 1640 (Sigma-Aldrich, Burlington, MA, USA) culture medium, supplemented with 10% fetal bovine serum, 100 U/mL penicillin (Sigma-Aldrich, Burlington, MA, USA) and 100 µg/mL streptomycin (Sigma-Aldrich, Burlington, MA, USA). Cells were cultured in a humidified atmosphere at 37 °C and 5% CO2.
(§3) Leukemia or PBMC cells (2 × 10^5 cells/mL) were incubated for 24 h in both the absence and presence of compounds. PBMCs were also treated with vinblastine (Sigma-Aldrich, Burlington, MA, USA) for 24 h as the positive control. Then, the cells were centrifuged and resuspended in binding buffer (0.01 M HEPES, pH 7.4, containing 0.14 M NaCl, and 2.5 mM CaCl2) and incubated at room temperature with annexin V-FITC (BD Biosciences, San Jose, CA, USA) and 5 µg/mL PI (Sigma-Aldrich, Burlington, MA, USA) for 20 min. Sample analysis was performed using an Accuri C6 flow cytometer (BD Biosciences, San Jose, CA, USA) with the acquisition value of 10,000 events.

Series [2] concerns Jurkat (acute lymphoblastic leukemia). Described as above. In kind it is cell-based. The conditions noted are these: Homo sapiens, Jurkat cells, 24 h. As for the experimental part:
as §1, §2, §3

Series [3] has as its target T1, cathepsin B (Homo sapiens, UniProt P07858). The series is described as follows: Cathepsin B inhibition, Z-FR-AMC fluorogenic assay (IC50). In kind it is biochemical. To be noted: Z-FR-AMC 50 µM, pH 5.5, 37 °C. The protocol:
(§4) Cathepsin L was assayed in a reaction buffer of 100 mM sodium acetate, containing 100 mM NaCl, 5 mM EDTA and 20% glycerol at pH 5.5. Cathepsin B was assayed in the same buffer supplemented with 0.01% Triton X-100. The enzymes were pre-incubated in the presence of 3 mM DTT for 5 min at 37 °C in a 1 mL final volume with constant stirring. The enzyme activities were monitored using the fluorogenic probe Z-FR-AMC (50 µM and 5 µM for cathepsin B and L, respectively), and the fluorescence was monitored by spectrofluorometry using the fluorometer RF6000 (Shimadzu, Tokyo, Japan) set to λEx = 360 nm and λEm = 480 nm. […] The data were analyzed by Grafit 5.0.13 software using Equation (1). (1) y=100%/1+(x/IC50)^S

Series [4] has as its target T2, cathepsin L (Homo sapiens, UniProt P07711). As to the kind of experiment: Cathepsin L inhibition, Z-FR-AMC fluorogenic assay (IC50). The series is classed as biochemical. The conditions noted are these: Z-FR-AMC 5 µM, pH 5.5, 37 °C. As for the experimental part:
as §4

For series [5], the system named is Jurkat and CCRF-CEM lineages. The series is described as follows: Annexin V-FITC/PI cytotoxicity, EC50 span over ALL lineages (discussion). The series is classed as cell-based. The conditions noted are these: Homo sapiens. As for the experimental part:
as §1, §2
Leukemia or PBMC cells (2 × 10^5 cells/mL) were incubated for 24 h in both the absence and presence of compounds. PBMCs were also treated with vinblastine (Sigma-Aldrich, Burlington, MA, USA) for 24 h as the positive control. […]

The subject of series [6] is K562 (chronic myeloblastic leukemia). As to the kind of experiment: Annexin V-FITC/PI cytotoxicity, concentration-response. The series is classed as cell-based. The conditions noted are these: Homo sapiens, K562 cells, 24 h. As for the experimental part: as §1, §2, §3
In series [7] the test system is ARH-77 (plasma cell leukemia). The description is as above. The series is classed as cell-based. To be noted: Homo sapiens, ARH-77 cells, 24 h. The protocol: as §1, §2, §3
Series [8] deals with Kasumi-1 (acute myeloblastic leukemia). The series is described as above. In kind it is cell-based. To be noted: Homo sapiens, Kasumi cells, 24 h. The protocol: as §1, §2, §3
Series [9] has as its system PARP-1 cleavage in CCRF-CEM cells. The series is described as follows: Cleaved PARP by flow cytometry. In kind it is cell-based, human. To be noted: 12 h of treatment, EC50 of the compounds. The protocol: (§5) Jurkat and CCRF-CEM cells (2 × 10^5 cells/mL) were treated with C9 and C21 compounds for 12 h. Then, the cells were centrifuged, washed, fixed with 2% paraformaldehyde in PBS for 30 min and permeabilized with 0.01% saponin in PBS for 15 min at room temperature. Afterwards, the cells were incubated for 1 h at 37 °C with anti-cleaved-caspase 3-FITC monoclonal antibodies (Cell Signaling, Danvers, MA, USA) or mouse anti-cleaved PARP-PE/CF594 (Asp^214) antibodies (BD Biosciences, San Jose CA, USA). After incubation, the fluorescence was analyzed using an Accuri C6 flow cytometer (BD Biosciences, San Jose, CA, USA). A total of 10,000 events were acquired per sample.

Series [10] relates to PARP-1 cleavage in Jurkat cells. The series is described as follows: Cleaved PARP by flow cytometry. In kind it is cell-based, human. The conditions noted are these: 12 h of treatment, EC50 of the compounds. The protocol: as §5
(Flow cytometry measures light scatter and fluorescence of single cells or particles in a stream.)

Series [11] concerns cleaved caspase-3 in CCRF-CEM cells. The series is described as follows: Cleaved caspase-3 by flow cytometry. The conditions noted are these: 12 h of treatment, EC50 of the compounds. In kind it is cell-based, human. As for the experimental part:
as §5

Series [12] concerns cleaved caspase-3 in Jurkat cells. As to the kind of experiment: Cleaved caspase-3 by flow cytometry. The series is classed as cell-based, human. The conditions noted are these: 12 h of treatment, EC50 of the compounds. The protocol: as §5
Series [13] has as its target T2, cathepsin L. As to the kind of experiment: Cathepsin L inhibition kinetics and mechanism. The series is classed as biochemical. The conditions noted are these: Cat L; for Mec. (mechanism of inhibition): SLNC = simple linear non-competitive, SLC = simple linear competitive. The protocol:
(§6) For every kinetic measurement, the compounds were pre-incubated with each enzyme for 10 min before adding the substrate. All kinetic assays were carried out in duplicate. Inhibition constants were determined using different equations, depending on the inhibition mechanism. The assumed KM values of cathepsin B and cathepsin L for Z-FR-AMC were 23.4 µM and 2 µM, respectively, as previously described. The data of the activity rate and substrate concentration generated rectangular hyperbolic profiles that were linearized using the Lineweaver–Burk/double reciprocal plot. The replot profiles of the slope vs inhibitor and intercept vs inhibitor provided the Ki and αKi parameters, respectively.

Another series deals with CCRF-CEM cells. The series is described as follows: Cytochrome c release, confocal colocalization. In kind it is cell-based, human. The conditions noted are these: CCRF-CEM lineage after treatment; control cells 25–35%. The protocol:
The release of cytochrome c from the mitochondria was estimated by using double-labeled confocal cell imaging with MitoTracker Green (Invitrogen, Waltham, MA, USA) and a cytochrome c antibody. Jurkat and CCRF-CEM cells (2 × 10^5 cells/mL) were incubated with C9 and C21 compounds for 12 h. Then, cells were incubated with 100 nM MitoTracker Green (Invitrogen, Waltham, MA, USA) for 30 min at 37 °C. Following this, cells were washed with PBS, fixed with 2% paraformaldehyde in PBS for 30 min and permeabilized with 0.01% saponin in PBS for 15 min. Then, the cells were incubated with a monoclonal rabbit antibody against human cytochrome c at 1:100 dilutions (0.5 μg/mL, Cell Signaling, Danvers, MA, USA) for 2 h at room temperature. […] Alexa Fluor 647 was excited using a HeNe laser (λEx = 633 nm) and its emissions were detected at 650–700 nm. MitoTracker Green was excited using an argon laser (λEx = 488 nm) and its emissions were detected at 500–550 nm. DAPI was excited with a diode laser (λEx = 405 nm) and its emissions were detected at […]. […]
The quantitative evaluation of colocalization was performed by using the percentage of colocalized between channels, which correspond to the pixels with red fluorescence and green or blue fluorescence. […] The colocalization coefficient was calculated using the Imaris software.

Series [14] has as its target T1, cathepsin B. As to the kind of experiment: Cathepsin B inhibition kinetics and mechanism. To be noted: Cat B; for Mec. (mechanism of inhibition): SLNC = simple linear non-competitive, SLC = simple linear competitive. In kind it is biochemical. As for the experimental part: as §6
A further series deals with PBMCs. The series is described as follows: Annexin V-FITC/PI cytotoxicity on healthy control cells. The series is classed as cell-based, human. The conditions noted are these: for cytotoxicity to PBMCs compared with vinblastine: 24 h of exposure at different concentrations; for sensitivity of PBMCs compared with the tumor lineages: healthy control cells, 24 h.
Text: Blood was collected using EDTA Vacuum Blood Collection Tubes. Peripheral blood mononuclear cells were isolated from three normal healthy individuals after they provided informed consent and after prior approval by the local Ethics Committee of University of Mogi das Cruzes (ethical appreciation number 72986617.3.0000.5497, and approval number 2.236.397). The fraction of mononuclear cells was separated from the blood by centrifugation with Ficoll-Histopaque-1077 (density 1.077 g/mL, Sigma-Aldrich, Burlington, MA, USA) at 400× g for 30 min. Mononuclear cells were maintained in 100 U/mL penicillin and […] streptomycin in an incubator with a humidified atmosphere at 37 °C and 5% CO2.
as §3, with “events. […]” for “events.”
Figure S3. Concentration-response curve of cytotoxicity of compounds C9, C21 and vinblastine on PBMCs. PBMCs cells were cultured (2x10^5 cells/mL) on 96-well microplates. The cells were treated with compounds C9 ([…]) and C21 (≤), and vinblastine ([…]) (Sigma-Aldrich, Germany) for 24 h. After, the cells were labeled with Annexin V-FITC and 5 μg/mL PI. The results were expressed as percent-age. The data are the mean ± SEM of 3 experiments performed in duplicate.

Series [15] relates to T-cell lymphomas lineages. Further details: method as in PMID 24225136. The conditions noted are these: cited from earlier work.

T2 sequence (P07711 114-333): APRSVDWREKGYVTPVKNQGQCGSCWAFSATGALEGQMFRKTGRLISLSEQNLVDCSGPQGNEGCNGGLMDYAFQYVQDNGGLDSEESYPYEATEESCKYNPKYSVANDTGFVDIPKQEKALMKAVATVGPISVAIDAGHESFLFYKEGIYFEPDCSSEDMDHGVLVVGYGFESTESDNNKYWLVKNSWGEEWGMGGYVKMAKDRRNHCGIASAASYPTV

In general, EC50 refers to the concentration that produces a half-maximal response. A word on the IC50: it is the midpoint of a concentration-inhibition curve. `CCCCCCCCCCCCCCCCOP(=O)([O-])OCC[N+](C)(C)C` [Compound 1, hexadecyl 2-(trimethylazaniumyl)ethyl phosphate, reference compound]: the EC50 is 120 ± 3 µM in [1], 186 ± 12 µM in [2] and 120 to 200 µM in series [5] (against the studied lines). In addition, the half-maximal inhibitory concentration (IC50) worked out at 7.5 ± 0.1 µM on cathepsin B [3] and 10.5 ± 0.2 µM on cathepsin L [4].
One may read the Ki as a dissociation constant, usually derived from enzyme kinetics or from competition with a known ligand. A low value points to higher affinity. With `OCCCc1cn(CCCCCCCCCCCCI)nn1` [Compound 9], the EC50 in series [1] is 40 ± 1.2 µM; in [6], over 140 µM; in series [7], 71 ± 0.8 µM; in series [8] it was over 140 µM; in series [2], 63 ± 1 µM; in [5] (in Jurkat and CCRF-CEM lineages) it was 40 to 70 µM. For the same compound, the figures for the IC50 against cathepsin B [3] and against cathepsin L [4] were 3.5 ± 0.2 µM and 1.3 ± 0.1 µM, respectively. Besides, the PARP-1 cleavage result in series [9] is on record as “did not occur”; in series [10], “observed”. For the same compound, the results for the “cleaved caspase-3” value in series [11] and in series [12] were “less intense” and “increase”, respectively. Besides, the Ki at cathepsin L [13] was 3.56 ± 0.26 µM; at cathepsin B [14], 15.3 ± 0.6 µM. This compound also yielded a αKi at cathepsin L [13] of 3.66 ± 0.07 µM. The “Mec. (mechanism of inhibition)” value at cathepsin L [13] (listed as C9) was “simple linear noncompetitive inhibition and SLNC”; on cathepsin B [14] (listed as C9) it was “simple linear competitive inhibition and SLC”. In addition, on cathepsin L [13] (listed as C9), the α is recorded as 1. Further, the “colocalization coefficient between the green and red channel” value in the series with CCRF-CEM cells was 30–40%. Also, in the series with PBMCs, the “cytotoxicity to PBMCs compared with vinblastine” value is listed as “less cytotoxic than vinblastine”. Further, in the series on PBMCs, the “sensitivity of PBMCs compared with the tumor lineages” value is “significantly less sensitive”.
In the case of `CC(=O)OCCCc1cn(CCCCCCCCCCCCOS(C)(=O)=O)nn1` [Compound 21], the EC50 in series [1] was 60 ± 2 µM; in series [6], over 140 µM; in series [7], 96 ± 1 µM; in [8], over 140 µM; in [2], 77 ± 1.5 µM. The IC50 worked out at 3.9 ± 0.2 µM at cathepsin B [3] and 1.6 ± 0.1 µM against cathepsin L [4]. Moreover, the PARP-1 cleavage result was “did not occur” in series [9] and “observed” in series [10]. The “cleaved caspase-3” value is “less intense” in series [11] and “increase” in series [12]. Moreover, the Ki came to 9.72 ± 1.23 µM at cathepsin L [13] and 27.4 ± 1.2 µM on cathepsin B [14]. Moreover, the αKi at cathepsin L [13] is 10.47 ± 1.17 µM; on cathepsin B [14], 43.9 ± 1.7 µM. Moreover, the “Mec. (mechanism of inhibition)” value at cathepsin L [13] (listed as C21) is “simple linear noncompetitive inhibition and SLNC”; at cathepsin B [14] (listed as C21) it was “simple linear noncompetitive inhibition and SLNC”. In addition, the α at cathepsin L [13] (listed as C21) was 1; at cathepsin B [14] it was 1.6. For the same compound, in the series with CCRF-CEM cells, the “colocalization coefficient between the green and red channel” value was 30–40%. Besides, the “cytotoxicity to PBMCs compared with vinblastine” value in the series with PBMCs is “less cytotoxic than vinblastine”. Besides, the “sensitivity of PBMCs compared with the tumor lineages” value in the series on PBMCs is given as “significantly less sensitive”.
`CCCCCCCC/C=C\CCCCCCCCCCCCOP(=O)([O-])OCC[N+](C)(C)C` [erufosine]: in [15], the EC50 is about 60 µM.
